Experimental data as given in US20110218143A1, “COMPOSITIONS AND METHODS FOR TISSUE REPAIR” (UNIVERSITY OF FLORIDA RESEARCH FOUNDATION, priority 2007, published 2011).
“Also recorded” adds a separate entry of the source.

Legend:
Type in all cases: in vivo, C57BL6/J mice
[1] = test system: cytokine production in mouse blood; assay: Cytokine/chemokine levels in blood serum (Millipore 21-Plex, Luminex)
Experimental: Mice received either a placebo, celastrol (3.0 mg/kg), or 17-AAG (10 mg/kg) by intraperitoneal injection. Blood samples were taken from all groups of mice at 0, 1, 3, 6, 24, 48, and 72 hours after administration of the placebo, celastrol, or 17-AAG. The blood samples were analyzed for cytokine production, including the production of granulocyte-macrophage colony-stimulating factor (GM-CSF), interferon-gamma (IFN-γ), interleukin-10 (IL-10), interleukin-12 subunit beta (IL-12p40), interleukin-12 heterodimer (IL-12p70), interleukin-12 homodimer (IL-12p80), vascular endothelial growth factor (VEGF), tumor necrosis factor-alpha (TNF-α), keratinocyte derived chemokine (KC), RANTES (Regulated upon Activation, Normal T-cell Expressed, and Secreted; CCL5), monocyte chemotactic protein-1 (MCP 1), macrophage inflammatory protein (MIP1β; CCL4), interleukin-4 (IL-4), interleukin-3 (IL-3), interleukin-2 (IL-2), interleukin-1 beta (IL-1β), interleukin-1 alpha (IL-1α), interleukin-9 (IL-9), interleukin-13 (IL-13), interleukin-17 (IL-17), interleukin-6 (IL-6), and interleukin-5 (IL-5). Blood serum was analyzed using a commercially available kit (e.g., Mouse cytokine/chemokine panel: 21-Plex; Millipore). Blood serum (50 μl) was assayed in duplicate using a commercially available cytokine/chemokine detection kit from Millipore following the protocol given with the product information. The final measurement was performed using a commercially available detector (e.g., computer-operated Luminex 100 IS system) and the results were expressed as pg/ml blood serum sample. Levels of cytokines in blood were quantitated as a concentration of the total volume of the sample.

[2] = test system: stem cell populations in bone marrow (cd34+, cd45+, Sca-1+ cells); assay: FACS of cells expressing stem cell markers CD34, CD45, Sca-1 in bone marrow samples; details: 24 hours post treatment
Experimental: (§1) Mice received either a placebo (PBS) or oridonin (3.0 mg/kg) by intraperitoneal injection.

[3] = test system: stem cell populations in blood (cd34+, cd45+, Sca-1+ cells); assay: FACS of cells expressing stem cell markers CD34, CD45, Sca-1 in blood samples
Experimental: Mice received either a placebo or triptolide (400 μg/kg) by intraperitoneal injection.
Celastrol analogs administered included dihydrocelastrol, dihydrocelastrol diacetate, and pristimerol (dihydropristimerin). Mice received either a placebo or a celastrol analog (3.0 mg/kg) by intraperitoneal injection.
as §1

[4] = i.p. celastrol 3.0 mg/kg or 17-AAG 10 mg/kg, 72 hour time course
[5] = i.p. celastrol 3.0 mg/kg or 17-AAG 10 mg/kg, sampled 0-72 h
[6] = i.p. celastrol 3.0 mg/kg or 17-AAG 10 mg/kg, sampled 0-72 h, vs placebo control
[7] = celastrol analog 3.0 mg/kg i.p.
[8] = celastrol analog 3.0 mg/kg i.p., 24 hours post treatment (so in the source)
[9] = oridonin 3.0 mg/kg i.p., 48 hours post treatment

C=CCNC1=C2C[C@@H](C)C[C@H](OC)[C@H](O)[C@@H](C)/C=C(\C)[C@H](OC(N)=O)[C@@H](OC)/C=C\C=C(/C)C(=O)NC(=CC1=O)C2=O [Formula 17-AAG, 17-allylamino-17-demethoxygeldanamycin]
level of TNF-α compared to placebo control ([1]; 17-AAG 10 mg/kg i.p., by 24 hours post treatment): declined below levels seen in the placebo control
level of MCP1 compared to placebo control ([1]; 17-AAG 10 mg/kg i.p., over the course of the experiment): not significantly different
level of IL-17 compared to placebo control ([1]; i.p. celastrol 3.0 mg/kg (throughout 72 hours) or 17-AAG 10 mg/kg (up to 48 hours)): consistently high
level of IFN-γ compared to placebo control [1, 4]: remained elevated up to 72 hours
level of IL-1β compared to placebo control [1, 4]: remained elevated up to 72 hours
level of IL-3 compared to placebo control [1, 4]: remained elevated up to 72 hours
level of IL-4 compared to placebo control [1, 4]: remained elevated up to 72 hours
level of IL-5 compared to placebo control [1, 4]: remained elevated up to 72 hours
level of IL-10 compared to placebo control [1, 4]: remained elevated up to 72 hours; also recorded: had risen again by 72 hours
level of IL-12p40 compared to placebo control [1, 4]: elevated again at 24 hours
level of IL-12p70 compared to placebo control [1, 4]: remained elevated up to 72 hours
level of IL-12p80 compared to placebo control [1, 4]: remained elevated up to 72 hours
time by which GM-CSF (elevated pre treatment) declined to placebo control levels [1, 5]: ≤ 6 h
time by which IL-1α returned to levels seen in the placebo control [1, 5]: ≤ 24 h
time by which IL-2 returned to levels seen in the placebo control [1, 5]: ≤ 6 h
time by which IL-6 returned to levels seen in the placebo control [1, 5]: ≤ 24 h
time by which IL-9 (elevated pre treatment) declined to placebo control levels [1, 5]: ≤ 6 h
time by which IL-13 returned to levels seen in the placebo control [1, 5]: ≤ 6 h
time by which KC returned to levels seen in the placebo control [1, 5]: ≤ 24 h
time by which MIP1β returned or declined to placebo control levels [1, 5]: ≤ 6 h
time by which RANTES returned to levels seen in the placebo control [1, 5]: up to 72 hours
time by which VEGF returned to levels seen in the placebo control [1, 5]: ≤ 6 h
time of peak level of IFN-γ post treatment [1, 6]: around 24 hours
time of peak level of IL-1α post treatment [1, 6]: around 6 hours
time of peak level of IL-1β post treatment [1, 6]: around 24 hours
time of peak level of IL-2 post treatment [1, 6]: around 3 hours
time of peak level of IL-3 post treatment [1, 6]: around 24 hours
time of peak level of IL-4 post treatment [1, 6]: around 24 hours
time of peak level of IL-5 post treatment [1, 6]: around 24 hours
time of peak level of IL-6 post treatment [1, 6]: around 6 hours
time of peak level of IL-10 post treatment [1, 6]: around 24 hours
time of peak level of IL-12p70 post treatment [1, 6]: around 24 hours
time of peak level of IL-12p80 post treatment [1, 6]: around 24 hours
time of peak level of IL-13 post treatment [1, 6]: around 3 hours
time of peak level of KC post treatment [1, 6]: around 6 hours
time of peak level of MCP1 post treatment [1, 6]: around 24 hours
time of peak level of MIP1β post treatment [1, 6]: around 3 hours
time of peak level of RANTES post treatment [1, 6]: around 48 hours
time of peak level of TNF-α post treatment [1, 6]: around 3 hours
time of peak level of VEGF post treatment [1, 6]: around 3 hours

Cc1c(O)c(O)cc2c1CC=C1[C@@]2(C)CC[C@@]2(C)[C@@H]3C[C@](C)(C(=O)O)CC[C@]3(C)CC[C@]12C [dihydrocelastrol]
Sca-1+ cells, percent of the population of bone marrow cells [2, 7]: 0.14%
cd34+ cells, percent of the population of bone marrow cells [2, 7]: 0.15%
cd45+ cells, percent of the population of bone marrow cells [2, 7]: 0.04%
change of percentage of cd45+ cells in bone marrow compared to untreated control [2, 7]: slight increase
fold increase of percentage of Sca-1+ cells in bone marrow over control [2, 7]: ~3 fold
fold increase of percentage of cd34+ cells in bone marrow over control [2, 7]: ~3 fold
Sca-1+ cells, percent of the population of blood cells [3, 8]: 0.4%
cd34+ cells, percent of the population of blood cells [3, 8]: approximately 0.6%
cd45+ cells, percent of the population of blood cells [3, 8]: about 0.19%
fold increase of percentage of Sca-1+ cells in blood over control [3, 8]: ~10 fold
fold increase of percentage of cd34+ cells in blood over control [3, 8]: ~4 fold
fold increase of percentage of cd45+ cells in blood over control [3, 8]: ~10 fold

C=C1C(=O)[C@]23[C@H](O)[C@H]1CC[C@H]2[C@@]12CO[C@]3(O)[C@@H](O)[C@@H]1C(C)(C)CC[C@@H]2O [oridonin]
CD34 cells, percent of the population of bone marrow cells ([2]; oridonin 3.0 mg/kg i.p.): greater than 0.5%
Sca-1+ cells, percent of the population of bone marrow cells ([2]; oridonin 3.0 mg/kg i.p.): about 0.5%
fold increase of percentage of Sca-1+ cells in bone marrow over control ([2]; oridonin 3.0 mg/kg i.p.): ≥ 10 fold
fold increase of percentage of cd34+ cells in bone marrow over control ([2]; oridonin 3.0 mg/kg i.p.): ≥ 10 fold
Sca-1+ cells, percent of the population of blood cells [3, 9]: 0.14%
cd34+ cells, percent of the population of blood cells [3, 9]: approximately 0.18%
fold increase of percentage of Sca-1+ cells in blood over control [3, 9]: ~1.4 fold
fold increase of percentage of cd34+ cells in blood over control [3, 9]: ~1.8 fold
